Laboratory results published in patent US9266876B2 (Actelion Pharmaceuticals Ltd., priority 2012, dated 2016).

Legend:
human CXCR3A = human CXCR3A (Homo sapiens (Human), UniProt P49682); assay: FLIPR assay; format: cell-based; details: CHO-K1 cells expressing the human CXCR3A coupled to Galpha(16); CXCL10 agonist 20 nM; Fluo-4-AM fluorescence; mean values if determined several times
Summary of the method: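 CHO-K1 cells expressing CXCR3A coupled to Gα16 were loaded with Fluo-4-AM for 1 h in Hepes-buffered HBSS, pH 7.4, with 5 mM probenecid. Compound dilutions were added on the FLIPR, followed by CXCL10 (added as a 20 nM solution). Baseline-subtracted peak fluorescence was fitted to a single-site curve for IC50.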

CXCR3 = CXCR3 (Homo sapiens (Human), UniProt P49682); assay: Receptor internalization assay; format: cell-based; details: human whole blood; final CXCL10 concentration 9 nM; 30 min 37° C.; CXCR3 cell surface expression on CD3 positive cells, flow cytometer; read-out: Internalization IC50
Summary of the method: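 In human whole blood, compounds were incubated with CXCL10 (9 nM final) for 30 min at 37 °C to drive receptor internalization, then stained with anti-CXCR3/CD3 antibodies and lysed of red cells. Flow cytometry measured mean surface CXCR3 fluorescence on CD3+ cells, and IC50 came from single-site dose-response fits.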

CXCR3, sequence (P49682 whole entry): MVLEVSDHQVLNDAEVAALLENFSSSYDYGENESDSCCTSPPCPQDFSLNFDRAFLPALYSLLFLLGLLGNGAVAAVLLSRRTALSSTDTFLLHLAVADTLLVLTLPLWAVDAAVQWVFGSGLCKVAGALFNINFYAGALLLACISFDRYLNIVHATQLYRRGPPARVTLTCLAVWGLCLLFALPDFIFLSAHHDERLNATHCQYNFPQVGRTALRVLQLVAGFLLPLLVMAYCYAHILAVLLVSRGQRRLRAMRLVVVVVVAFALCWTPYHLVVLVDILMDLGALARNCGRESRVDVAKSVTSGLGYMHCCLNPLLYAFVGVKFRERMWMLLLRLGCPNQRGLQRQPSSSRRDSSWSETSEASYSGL
human CXCR3A, sequence (P49682 whole entry): as above

IC50 (human CXCR3A) [nM]	IC50 (CXCR3) [nM]	Structure (SMILES)
5	47	COCCOc1ccc2[nH]c(-c3nc(C(F)(F)F)sc3N3CCN(C(=O)Cn4cnc5cccnc54)[C@H](C)C3)nc2c1 [Example 163, 2-Imidazo[4,5-b]pyridin-3-yl-1-((R)-4-{4-[5-(2-methoxy-ethoxy)-1H-benzoimidazol-2-yl]-2-trifluoromethyl-thiazol-5-yl}-2-methyl-piperazin-1-yl)-ethanone]
1	517	C[C@@H]1CN(c2scnc2-c2nc3cc(Cl)ccc3[nH]2)CCN1C(=O)Cn1c(=O)oc2ccccc21 [Example 84, 3-(2-{(R)-4-[4-(5-Chloro-1H-benzoimidazol-2-yl)-thiazol-5-yl]-2-methyl-piperazin-1-yl}-2-oxo-ethyl)-3H-benzooxazol-2-one]
4	547	C[C@@H]1CN(c2scnc2-c2nc3ccccc3[nH]2)CCN1C(=O)CN1C(=O)C(C)(C)c2ccccc21 [Example 151, 1-(2-{(R)-4-[4-(1H-Benzoimidazol-2-yl)-thiazol-5-yl]-2-methyl-piperazin-1-yl}-2-oxo-ethyl)-3,3-dimethyl-1,3-dihydro-indol-2-one]
8	5310	C[C@@H]1CN(c2sc(C(F)(F)F)nc2-c2nc3ccccc3[nH]2)CCN1C(=O)Cn1nccn1 [Example 197, 1-{(R)-4-[4-(1H-Benzoimidazol-2-yl)-2-trifluoromethyl-thiazol-5-yl]-2-methyl-piperazin-1-yl}-2-[1,2,3]triazol-2-yl-ethanone]
2	260	C[C@@H]1CN(c2sc(C(F)(F)F)nc2-c2nc3ccccc3[nH]2)CCN1C(=O)Cn1cnc2cnccc21 [Example 206, 1-{(R)-4-[4-(1H-Benzoimidazol-2-yl)-2-trifluoromethyl-thiazol-5-yl]-2-methyl-piperazin-1-yl}-2-imidazo[4,5-c]pyridin-1-yl-ethanone]
15	5880	CCc1nc(-c2nc3ccccc3[nH]2)c(N2CCN(C(=O)Cn3ccc4cccnc43)CC2)s1 [Example 39, 1-{4-[4-(1H-Benzoimidazol-2-yl)-2-ethyl-thiazol-5-yl]-piperazin-1-yl}-2-pyrrolo[2,3-b]pyridin-1-yl-ethanone]
5	3430	COc1cc2nc(-c3ncsc3N3CCN(C(=O)Cn4cnc5cccnc54)[C@H](C)C3)[nH]c2cc1OC [Example 158, 1-{(R)-4-[4-(5,6-Dimethoxy-1H-benzoimidazol-2-yl)-thiazol-5-yl]-2-methyl-piperazin-1-yl}-2-imidazo[4,5-b]pyridin-3-yl-ethanone]
2	169	Cc1nc(C)n(CC(=O)N2CCN(c3sc(C(F)(F)F)nc3-c3nc4cc(OC(F)(F)F)ccc4[nH]3)C[C@H]2C)n1 [Example 241, 2-(3,5-Dimethyl-[1,2,4]triazol-1-yl)-1-{(R)-2-methyl-4-[4-(5-trifluoromethoxy-1H-benzoimidazol-2-yl)-2-trifluoromethyl-thiazol-5-yl]-piperazin-1-yl}-ethanone]
3	1580	O=C(Cn1ccc2cccnc21)N1CCN(c2sc(Br)nc2-c2nc3ccccc3[nH]2)CC1 [Example 38, 1-{4-[4-(1H-Benzoimidazol-2-yl)-2-bromo-thiazol-5-yl]-piperazin-1-yl}-2-pyrrolo[2,3-b]pyridin-1-yl-ethanone]
3	435	C[C@@H]1CN(c2sc(C(F)(F)F)nc2-c2nc3cc(C4(O)CC4)ccc3[nH]2)CCN1C(=O)Cn1cnc2cccnc21 [Example 168, 1-((R)-4-{4-[5-(1-Hydroxy-cyclopropyl)-1H-benzoimidazol-2-yl]-2-trifluoromethyl-thiazol-5-yl}-2-methyl-piperazin-1-yl)-2-imidazo[4,5-b]pyridin-3-yl-ethanone]
3	6380	C[C@@H]1CN(c2scnc2-c2nc3ccccc3[nH]2)CCN1C(=O)Cc1n[nH]c2ccccc12 [Example 132, 1-{(R)-4-[4-(1H-Benzoimidazol-2-yl)-thiazol-5-yl]-2-methyl-piperazin-1-yl}-2-(1H-indazol-3-yl)-ethanone]
1	499	Cc1ccc2[nH]c(-c3ncsc3N3CCN(C(=O)Cn4cnc5cccnc54)[C@H](C)C3)nc2c1 [Example 85, 2-Imidazo[4,5-b]pyridin-3-yl-1-{(R)-2-methyl-4-[4-(5-methyl-1H-benzoimidazol-2-yl)-thiazol-5-yl]-piperazin-1-yl}-ethanone]
14	2420	O=C(Cn1ccc2cccnc21)N1CCN(c2scnc2-c2nc3ccccc3[nH]2)CC1 [Example 15, 1-{4-[4-(1H-Benzoimidazol-2-yl)-thiazol-5-yl]-piperazin-1-yl}-2-pyrrolo[2,3-b]pyridin-1-yl-ethanone]
0.4	895	C[C@@H]1CN(c2scnc2-c2nc3cc(F)c(F)cc3[nH]2)CCN1C(=O)Cn1cnc2cccnc21 [Example 91, 1-{(R)-4-[4-(5,6-Difluoro-1H-benzoimidazol-2-yl)-thiazol-5-yl]-2-methyl-piperazin-1-yl}-2-imidazo[4,5-b]pyridin-3-yl-ethanone]
7	494	Cc1nc(C)n(CC(=O)N2CCN(c3sc(C(F)(F)F)nc3-c3nc4c(C(F)(F)F)cccc4[nH]3)C[C@H]2C)n1 [Example 232, 2-(3,5-Dimethyl-[1,2,4]triazol-1-yl)-1-{(R)-2-methyl-4-[2-trifluoromethyl-4-(4-trifluoromethyl-1H-benzoimidazol-2-yl)-thiazol-5-yl]-piperazin-1-yl}-ethanone]
14	3040	C[C@@H]1CN(c2scnc2-c2nc3ccccc3[nH]2)CCN1C(=O)Cn1c(CO)cc2cccnc21 [Example 154, 1-{(R)-4-[4-(1H-Benzoimidazol-2-yl)-thiazol-5-yl]-2-methyl-piperazin-1-yl}-2-(2-hydroxymethyl-pyrrolo[2,3-b]pyridin-1-yl)-ethanone]
6	6560	C[C@@H]1CN(c2sc(C(F)(F)F)nc2-c2nc3ccccc3[nH]2)CCN1C(=O)Cc1nnc(-c2ccccc2)o1 [Example 196, 1-{(R)-4-[4-(1H-Benzoimidazol-2-yl)-2-trifluoromethyl-thiazol-5-yl]-2-methyl-piperazin-1-yl}-2-(5-phenyl-[1,3,4]oxadiazol-2-yl)-ethanone]
1	1540	C[C@@H]1CN(c2scnc2-c2nc3ccc(CO)cc3[nH]2)CCN1C(=O)Cn1cnc2cccnc21 [Example 159, 1-{(R)-4-[4-(6-Hydroxymethyl-1H-benzoimidazol-2-yl)-thiazol-5-yl]-2-methyl-piperazin-1-yl}-2-imidazo[4,5-b]pyridin-3-yl-ethanone]

Structure (SMILES)	IC50 (human CXCR3A) [nM]	IC50 (CXCR3) [nM]
C[C@@H]1CN(c2sc(CO)nc2-c2nc3ccccc3[nH]2)CCN1C(=O)Cn1cnc2cccnc21 [Example 225, 1-{(R)-4-[4-(1H-Benzoimidazol-2-yl)-2-hydroxymethyl-thiazol-5-yl]-2-methyl-piperazin-1-yl}-2-imidazo[4,5-b]pyridin-3-yl-ethanone]	54	3460
Cc1nc(C)n(CC(=O)N2CCN(c3sc(C(F)(F)F)nc3-c3nc4ccccc4[nH]3)C[C@@H]2C)n1 [Example 243, 1-{(S)-4-[4-(1H-Benzoimidazol-2-yl)-2-trifluoromethyl-thiazol-5-yl]-2-methyl-piperazin-1-yl}-2-(3,5-dimethyl-[1,2,4]triazol-1-yl)-ethanone]	3	1120
